Test results taken from PubChem BioAssay AID1963845 (Molecular Pharmacology Branch, DTP, NCI, 2024).
Where “and” joins values, the source holds several entries; their conditions need not be identical. Equal values may be shown once.

Test system: 429239-143-T-J1-PDC complex spheroid viability
Experiment: Anticancer human tumor 429239-143-T-J1-PDC patient-derived small cell lung carcinoma cell line growth inhibition [POLQ]
Conditions: for viability, T/C: stronger effect = lower value
Procedure: Multicellular complex tumor spheroid response to Polymerase (POL) inhibitors (novobiocin, ART-558, RP6685) in combination with a variety of drugs and investigational agents in selected tumor cell lines
The POL inhibitors (novobiocin, ART-558, and RP6685) were evaluated both individually and in combination with standard of care and investigational anticancer small molecules within a complex spheroid model of solid tumors. . Complex spheroids include a stromal component modeled by human endothelial cells (HUVEC) and fibroblasts modeled by human mesenchymal stem cells (MSCs). The concentration ranges selected for each drug and investigational agent were based upon clinically achievable concentrations if the clinical Cmax of the agent was known.
Compounds. The drugs and investigational agents: novobiocin (NSC847541), ART-558 (NSC835418), RP-6685 (NSC848927), peposertib (NSC802822), ceralasertib (NSC780249), elimusertib (NSC800525), camonsertib (NSC841442), AZD-1390 (NSC803789), olaparib (NSC753686), talazoparib (NSC767125), rucaparib (NSC756644), sotorasib (NSC818433), MRTX-1133 (NSC836407), SN-38 (NSC673596), topotecan (NSC609699), epotoside (NSC141540), doxorubicin (NSC123127), gemcitabine (NSC613327), 5-fluorouracil (NSC19893), paclitaxel (NSC125973), vemurafenib (NSC761431), MSA-2 (NSC828583), SN-011 (NSC837082), adavosertib (NSC754352), prexasertib (NSC758257), carboplatin (NSC241240) and oxaliplatin (NSC266046), were obtained from the National Cancer Institute (NCI) Developmental Therapeutics Program Chemical Repository (21). The FDA-approved anticancer drug set is available from the Developmental Therapeutics Program at https://dtp.cancer.gov/organization/dscb/obtaining/. […] The stock solutions were prepared in dimethyl sulfoxide (DMSO, Sigma-Aldrich, St. Louis, MO, cat. D2650), except for the platinum compounds which were prepared in saline (Quality Biological, Gaithersburg, MD, cat. 114-055-101), at 800-fold the tested concentration and stored at -70 degrees C prior to their use. All drugs and investigational agents were tested over a range starting from a high concentration at or near the clinical Cmax and decreasing in half-log increments. If the clinical Cmax for an agent had not been determined, the highest concentration tested was 10 microM, except for SN-38, which was tested at a high concentration of 1 microM.
Cell Culture. All cells were maintained in an incubator at 37 degrees C and 5% CO2 with 95% humidity. The PDC lines were cultured according to standard operating procedures established by the NCI PDMR (https://pdmr.cancer.gov). Table 3 of the manuscript, lists the cell lines along with the number of the three cell types plated to form the mct-spheroids and media for tumor cell growth. After thawing, all PDC lines, except 997537-175-T-J1-PDC and 415267-285-R-J2-PDC, were cultured in Matrigel-coated flasks prepared with a working solution of 1X Ham's F-12 nutrient mix, without supplementation (Thermo Fisher Scientific, cat. 11765054), 100 U/mL penicillin-streptomycin (Thermo Fisher Scientific, cat. 15140122), and 2.5% Matrigel (Corning Inc., Corning, NY, cat. 354248) for the first three passages. The two PDC lines 997537-175-T-J1-PDC and 415267-285-R-J2-PDC were cultured on uncoated flasks. The 857933-349-R-J2-PDC line was cultured in 6C/Colon 1B media containing advanced DMEM/F-12 (Thermo Fisher Scientific, cat. 12634028), 10 mM HEPES (Thermo Fisher Scientific, cat. 15630080), 1X GlutaMAX supplement (Thermo Fisher Scientific, cat. 35050061), 0.1 mg/mL primocin (InvivoGen, San Diego, CA, cat. ant-pm-2), 10% defined fetal bovine serum, heat inactivated (HyClone Laboratories Inc., Logan, UT, cat. SH30070.03HI), 50% L-WRN conditioned media (ATCC, cat. CRL-3276), 1.25 mM N-Acetyl-L-cysteine (Sigma-Aldrich, cat. A9165), 10 mM nicotinamide (Sigma-Aldrich, cat. N0636), 1X B-27 supplement (Thermo Fisher Scientific, cat. 17504044), 1X N-2 supplement (Thermo Fisher Scientific, cat. […]

[1] = curve of first compound, second compound 0.0316 µM
[2] = curve of first compound, second compound 0.1 µM
[3] = curve of first compound, second compound 0.316 µM
[4] = curve of first compound, second compound 1 µM
[5] = curve of first compound, second compound 3.16 µM
[6] = curve of first compound, second compound 10 µM
[7] = second compound 0.0316 µM, first compound 0.0316 µM
[8] = second compound 0.0316 µM, first compound 0.1 µM
[9] = second compound 0.0316 µM, first compound 0.316 µM
[10] = second compound 0.0316 µM, first compound 1 µM
[11] = second compound 0.0316 µM, first compound 3.16 µM
[12] = second compound 0.0316 µM, first compound 10 µM
[13] = second compound 0.1 µM, first compound 0.0316 µM
[14] = second compound 0.1 µM, first compound 0.1 µM
[15] = second compound 0.1 µM, first compound 0.316 µM
[16] = second compound 0.1 µM, first compound 1 µM
[17] = second compound 0.1 µM, first compound 3.16 µM
[18] = second compound 0.1 µM, first compound 10 µM
[19] = second compound 0.316 µM, first compound 0.0316 µM
[20] = second compound 0.316 µM, first compound 0.1 µM
[21] = second compound 0.316 µM, first compound 0.316 µM
[22] = second compound 0.316 µM, first compound 1 µM
[23] = second compound 0.316 µM, first compound 3.16 µM
[24] = second compound 0.316 µM, first compound 10 µM
[25] = second compound 1 µM, first compound 0.0316 µM
[26] = second compound 1 µM, first compound 0.1 µM
[27] = second compound 1 µM, first compound 0.316 µM
[28] = second compound 1 µM, first compound 1 µM
[29] = second compound 1 µM, first compound 3.16 µM
[30] = second compound 1 µM, first compound 10 µM
[31] = second compound 3.16 µM, first compound 0.0316 µM
[32] = second compound 3.16 µM, first compound 0.1 µM
[33] = second compound 3.16 µM, first compound 0.316 µM
[34] = second compound 3.16 µM, first compound 1 µM
[35] = second compound 3.16 µM, first compound 3.16 µM
[36] = second compound 3.16 µM, first compound 10 µM
[37] = second compound 10 µM, first compound 0.0316 µM
[38] = second compound 10 µM, first compound 0.1 µM
[39] = second compound 10 µM, first compound 0.316 µM
[40] = second compound 10 µM, first compound 1 µM
[41] = second compound 10 µM, first compound 3.16 µM
[42] = second compound 10 µM, first compound 10 µM
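Further: luminescence signal used as surrogate measure of viable cells; spheroids exposed to compounds for seven days before readout.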
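Wherever viability, T/C is given: 100% = DMSO vehicle control viability as luminescence relative to vehicle.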

## CC1COCCN1c1cc(-c2ccnn2C)c2ccnc(-c3ccn[nH]3)c2n1 (centres undefined) + Nc1ccc(C#CCN(C(=O)Cc2ncc(C(F)(F)F)cc2C(F)(F)F)c2ccc(F)cc2)nn1
[1]
  IC50: 545 nM
[2]
  IC50: 469 nM
[3]
  IC50: 466 nM
[4]
  IC50: 373 nM
[5]
  IC50: 343 nM
[6]
  IC50: 280 nM
[7]
  viability, T/C: 95%
[8]
  viability, T/C: 77.8%
[9]
  viability, T/C: 68.3%
[10]
  viability, T/C: 33.4%
[11]
  viability, T/C: 4.99%
[12]
  viability, T/C: 3.79%
[13]
  viability, T/C: 91.9%
[14]
  viability, T/C: 80.6%
[15]
  viability, T/C: 62.9%
[16]
  viability, T/C: 27.8%
[17]
  viability, T/C: 5.19%
[18]
  viability, T/C: 4.25%
[19]
  viability, T/C: 91.5%
[20]
  viability, T/C: 78.6%
[21]
  viability, T/C: 64.7%
[22]
  viability, T/C: 24.5%
[23]
  viability, T/C: 5.31%
[24]
  viability, T/C: 3.76%
[25]
  viability, T/C: 86.8%
[26]
  viability, T/C: 72%
[27]
  viability, T/C: 56.1%
[28]
  viability, T/C: 26.2%
[29]
  viability, T/C: 5.38%
[30]
  viability, T/C: 4.35%
[31]
  viability, T/C: 87.9%
[32]
  viability, T/C: 72.5%
[33]
  viability, T/C: 53.1%
[34]
  viability, T/C: 26.6%
[35]
  viability, T/C: 5.52%
[36]
  viability, T/C: 3.58%
[37]
  viability, T/C: 89.4%
[38]
  viability, T/C: 71.2%
[39]
  viability, T/C: 47.4%
[40]
  viability, T/C: 25.8%
[41]
  viability, T/C: 4.8%
[42]
  viability, T/C: 3.43%

## CCCS(=O)(=O)Nc1ccc(F)c(C(=O)c2c[nH]c3ncc(-c4ccc(Cl)cc4)cc23)c1F + Nc1ccc(C#CCN(C(=O)Cc2ncc(C(F)(F)F)cc2C(F)(F)F)c2ccc(F)cc2)nn1
[1]
  IC50: > 10000 nM
[2]
  IC50: > 10000 nM
[3]
  IC50: > 10000 nM
[4]
  IC50: > 10000 nM
[5]
  IC50: > 10000 nM
[6]
  IC50: > 10000 nM
[7]
  viability, T/C: 99%
[8]
  viability, T/C: 111%
[9]
  viability, T/C: 101%
[10]
  viability, T/C: 110%
[11]
  viability, T/C: 104%
[12]
  viability, T/C: 93.3%
[13]
  viability, T/C: 106%
[14]
  viability, T/C: 102%
[15]
  viability, T/C: 96.9%
[16]
  viability, T/C: 100%
[17]
  viability, T/C: 98.3%
[18]
  viability, T/C: 88.7%
[19]
  viability, T/C: 105%
[20]
  viability, T/C: 108%
[21]
  viability, T/C: 106%
[22]
  viability, T/C: 106%
[23]
  viability, T/C: 108%
[24]
  viability, T/C: 93.4%
[25]
  viability, T/C: 114%
[26]
  viability, T/C: 99.5%
[27]
  viability, T/C: 97.4%
[28]
  viability, T/C: 104%
[29]
  viability, T/C: 112%
[30]
  viability, T/C: 91%
[31]
  viability, T/C: 105%
[32]
  viability, T/C: 104%
[33]
  viability, T/C: 94.6%
[34]
  viability, T/C: 102%
[35]
  viability, T/C: 101%
[36]
  viability, T/C: 94.9%
[37]
  viability, T/C: 116%
[38]
  viability, T/C: 98.3%
[39]
  viability, T/C: 105%
[40]
  viability, T/C: 108%
[41]
  viability, T/C: 102%
[42]
  viability, T/C: 89.1%

## Cc1cccc(N(C)C(=O)C2C(O)CCN2c2nc(C)cc(C(F)(F)F)c2C#N)c1 (centres undefined)
Compound 0.0316 µM
  viability, T/C: 103% [middle of 13 runs]
Compound 0.1 µM
  viability, T/C: 102% [middle of 13 runs]
Compound 0.316 µM
  viability, T/C: 98% [middle of 13 runs]
Compound 1 µM
  viability, T/C: 100% [middle of 13 runs]
Compound 3.16 µM
  viability, T/C: 104% [middle of 13 runs]
Compound 10 µM
  viability, T/C: 106% [middle of 13 runs]
Compound alone, run of 01/08/2024
  IC50: > 10000 nM
Compound alone, run of 01/19/2024
  IC50: > 10000 nM

## CC(C)n1c(=O)n(C)c2cnc3cc(F)c(-c4ccc(OCCCN5CCCCC5)nc4)cc3c21
Compound 0.0316 µM
  viability, T/C: 99.4% and 102% and 100%
Compound 0.1 µM
  viability, T/C: 94.7% and 101% (2×)
Compound 0.316 µM
  viability, T/C: 102% and 94.4% and 86.6%
Compound 1 µM
  viability, T/C: 89.1% and 102% and 95.7%
Compound 3.16 µM
  viability, T/C: 91.2% and 99.8% and 90.1%
Compound 10 µM
  viability, T/C: 60.3% and 99.5% and 74.6%
Curve of compound
  IC50: > 10000 nM
